Experimental data reported in publication PMC9841589, “Identification of 2-Aminoacyl-1,3,4-thiadiazoles as Prostaglandin E2 and Leukotriene Biosynthesis Inhibitors” (ACS Medicinal Chemistry Letters, 2022).

Biological target: T1, Human recombinant sEH (Homo sapiens, UniProt P34913)
T1 construct: made in house; host or cells: Sf9 cells infected with a baculovirus provided by Dr. B. Hammock
T1 sequence (P34913 1-555): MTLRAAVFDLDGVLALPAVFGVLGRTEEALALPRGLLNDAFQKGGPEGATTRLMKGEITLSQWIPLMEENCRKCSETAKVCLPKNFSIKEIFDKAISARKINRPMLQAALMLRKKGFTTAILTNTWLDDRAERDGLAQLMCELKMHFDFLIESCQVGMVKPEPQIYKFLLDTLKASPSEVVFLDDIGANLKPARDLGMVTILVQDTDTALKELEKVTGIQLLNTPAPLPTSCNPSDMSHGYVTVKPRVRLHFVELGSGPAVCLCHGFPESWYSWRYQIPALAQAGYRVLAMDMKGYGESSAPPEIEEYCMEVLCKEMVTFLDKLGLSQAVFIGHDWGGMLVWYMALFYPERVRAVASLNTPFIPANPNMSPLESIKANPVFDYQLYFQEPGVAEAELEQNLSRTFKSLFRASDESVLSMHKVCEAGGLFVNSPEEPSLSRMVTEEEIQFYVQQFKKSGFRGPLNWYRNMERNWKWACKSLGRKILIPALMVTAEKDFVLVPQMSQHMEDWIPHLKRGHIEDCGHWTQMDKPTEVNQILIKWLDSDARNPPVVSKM
Assay: Activity assay of human recombinant sEH
Type: biochemical
Settings: percentage of uninhibited control (100%), n = 3, n.i.: no inhibitory activity observed, read-out: sEH residual activity (%)
Description: 8) plus 5 mM glutathione, 100 µM EDTA and 5 µM hemoglobin) to a final concentration of 50 U/mL for COX-1 and 20 U/mL for COX-2, and pre-incubated with test compounds 3, 6, 7, and 9 (10 µM) or vehicle (0.1% DMSO) over 5 min at rt. After 1 min at 37 °C, reactions were started after addition of arachidonic acid to a final concentration of 5 µM for COX-1 and 2 µM for COX-2. After 5 min at 37 °C, 1 mL of ice-cold methanol was added for stopping the reactions on ice. Then, PGB 1 as internal standard and 530 µl PBS plus HCl were added, and solid-phase extraction was performed as reported before.4-6, 17-19 COXs product formation (12-HHT) was determined using RP-HPLC. 4-6, 17-19 Indomethacin (10 µM) and celecoxib (5 µM) were used as reference drugs.
Expression, purification and activity assay of human recombinant sEH
Human recombinant sEH was expressed in Sf9 cells and was infected using a baculovirus, provided by Dr. B. Hammock, University of California, Davis, CA. After 72 hours, cells were pelleted and sonicated (3 × 10 sec) at 4 °C in lysis buffer (50 mM NaHPO 4, pH = 8, 300 mM NaCl, 10% glycerol, 1 mM EDTA, 1 mM phenylmethanesulfonyl fluoride, 10 µg/mL of leupeptin, and 60 µg/mL of soybean trypsin inhibitor). Lysates were centrifuged over 60 min at 4 °C (100,000 × g), and supernatants were collected and submitted to a benzylthio-sepharose-affinity chromatography for sEH purification by elution with 4-fluorochalcone oxide in PBS plus 1 mM DTT and 1 mM EDTA.720 Bio-Rad protein detection kit (Bio-Rad Laboratories, Munich, Germany) was used for total protein on dialyzed and concentrated (Millipore Amicon-Ultra-15 centrifugal filter) enzyme solution and a fluorescence-based assay was used to define the epoxide hydrolase activity. 5,618, 19 Then, sEH was diluted in Tris buffer (25 mM, pH = 7) supplemented with 0.1 mg/mL of BSA to an appropriate enzyme concentration and pre-incubated with test compounds 3, 6, 7, 9 (10 µM) or vehicle (0.1% DMSO) for 15 min at rt. 50 µM 3-phenyl-cyano(6-methoxy-2-naphthalenyl)methyl ester-2-oxiraneacetic acid (PHOME), a non-fluorescent compound, was added for starting the reaction.
PHOME is enzymatically converted into a fluorescent compound, 6-methoxy-naphtaldehyde, detectable by using a spectrofluorometer setting λ em = 465 nm, λ ex = 330 nm. After 60 min, ZnSO 4 […]
(200 mM) was added for stopping the reaction, and then fluorescence was detected. AUDA (12-(3-adamantan-1-yl-ureido)-dodecanoic acid) (100 nM) was used as reference drug.
Human neutrophils and monocytes were freshly isolated from leukocyte concentrates obtained from the Institute of Transfusion Medicine, University Hospital Jena. […]

O=C(Nc1nnc(-c2ccc(-c3cccc(O)c3)cc2)s1)c1ccccc1Br [compound 3]
remaining activity at 10 µM: 96%

Nc1ccccc1-c1ccc(-c2nnc(NC(=O)c3ccccc3Br)s2)cc1 [compound 7]
remaining activity at 10 µM: 164%

Cc1cc(C(=O)Nc2nnc(-c3ccc(-c4ccccc4N)cc3)s2)cc(Cl)n1 [compound 6]
remaining activity at 10 µM: 67.7%

Nc1ccccc1-c1ccc(-c2nnc(NC(=O)c3c(Cl)ccnc3Cl)s2)cc1 [compound 9]
remaining activity at 10 µM: 83.9%
